Test results taken from publication PMC7864192 (Cancers, 2021).
Where two headings read alike, the source gives them in different places.

Legend:
[1] = test system: GCPA007 T2.I patient-derived AGCT cell line; test: Cell viability drug screen (Cell Titer Glo 2.0, 72 h), mono- and combination therapy, GCPA007T2.I; conditions: GCPA007T2I
[2] = test system: GCPA096 T1.I patient-derived AGCT cell line; test: Cell viability drug screen (Cell Titer Glo 2.0, 72 h), mono- and combination therapy, GCPA096T1.I; conditions: GCPA096T1I
Method: (§1) Cell lines were seeded at a density of 500 cells/well in 40 uL in 384-well plates (Corning, NY, USA) with the Multidrop™ cell dispenser (Thermo Fischer Scientific, Waltham, MA, USA) and sealed with Breathe-Easy® membrane (Sigma-Aldrich, St. Louis, MO, USA) to prevent evaporation. […] For each cell line, three biological repeats and two technical repeats each were performed in order to ensure the validity of the drug screens. […] Subsequently, 11 drugs and 12 drug combinations were dispensed and all wells (excluding blanks and non-DMSO control wells) were normalized to 1% DMSO using the HP Tecan D300e Digital Dispenser (Hewlett-Packard, Palo Alto, CA, USA). […] Next, the plates were covered with the Breathe-Easy membrane and incubated. After 72 h, the Multidrop dispensed 15 uL per well of Cell Titer Glo 2.0 (Thermo Fischer Scientific, Waltham, MA, USA) and plates were incubated in the dark for 10 min. After incubation, luminescence excitation was assessed in the Spectramax reader (Molecular Devices, San Jose, CA, USA) (top read, luminescence excitation at 500 nm) and raw data were processed in Microsoft Excel to subtract background luminescence. The Z-factor, a mathematical method used to quantify the quality of a drug screen based on the calculation of the separation band between the values of the positive and negative controls, was utilized to assess the quality of drug screens [54]. Screens with a Z-factor value of >0.5 were used for further analysis.
(§2) Overall cell survival (in %) was plotted against the drug concentration range of each drug (in log10[μM]) using GraphPad Prism 8.3.1. Values that exceeded 100% survival (within +20% biological deviation) were normalized to 100% survival. Similarly, values below 0% cell survival (within −20% biological deviation) were normalized to 0% survival. Values exceeding this deviation were excluded. Dose–response curves were obtained using the model “log(inhibitor) vs. variable slope (normalized response)” to fit the dose–response curves and R^2 values were used to indicate how well the model fit the data (Supplementary Materials Figures S4 and S5). […] The IC50 values were calculated based on the Chou–Talalay method using Compusyn software [55]. For anti-hormonal treatment, mostly provided as maintenance therapy, we used IC10 values in addition to the IC50.
(§3) In addition to the 11 monotherapies, 12 drug combinations were tested (Table 3) simultaneously with the individual drug treatments in the same 384-well plate. […] Synergy was evaluated using the mass action law, a systematic analysis assessing dose–response dynamics in a cost-effective manner [56, 57]. The combination index (CI) was used to indicate antagonistic (CI > 1) additive (CI = 1) and synergistic (CI < 1) effects [55].

[3] = test system: GCPA096 T1.V patient-derived AGCT cell line; test: Cell viability drug screen (Cell Titer Glo 2.0, 72 h), mono- and combination therapy, GCPA096T1.V; conditions: GCPA096T1V
Method: (§4) Cell lines were seeded at a density of 500 cells/well in 40 uL in 384-well plates (Corning, NY, USA) with the Multidrop™ cell dispenser (Thermo Fischer Scientific, Waltham, MA, USA) and sealed with Breathe-Easy® membrane (Sigma-Aldrich, St. Louis, MO, USA) to prevent evaporation. The SVOG-3e line was seeded at 1000 cells/well due to contact-dependent growth requirements. For each cell line, three biological repeats and two technical repeats each were performed in order to ensure the validity of the drug screens. […] Subsequently, 11 drugs and 12 drug combinations were dispensed and all wells (excluding blanks and non-DMSO control wells) were normalized to 1% DMSO using the HP Tecan D300e Digital Dispenser (Hewlett-Packard, Palo Alto, CA, USA). All drugs were applied in linear concentration ranges (Table 2), including 16 data points to enable combination drug testing at constant ratios (Table 3). Next, the plates were covered with the Breathe-Easy membrane and incubated. After 72 h, the Multidrop dispensed 15 uL per well of Cell Titer Glo 2.0 (Thermo Fischer Scientific, Waltham, MA, USA) and plates were incubated in the dark for 10 min. After incubation, luminescence excitation was assessed in the Spectramax reader (Molecular Devices, San Jose, CA, USA) (top read, luminescence excitation at 500 nm) and raw data were processed in Microsoft Excel to subtract background luminescence. […] Screens with a Z-factor value of >0.5 were used for further analysis.
(§5) Overall cell survival (in %) was plotted against the drug concentration range of each drug (in log10[μM]) using GraphPad Prism 8.3.1. Values that exceeded 100% survival (within +20% biological deviation) were normalized to 100% survival. Similarly, values below 0% cell survival (within −20% biological deviation) were normalized to 0% survival. Values exceeding this deviation were excluded. Dose–response curves were obtained using the model “log(inhibitor) vs. variable slope (normalized response)” to fit the dose–response curves and R^2 values were used to indicate how well the model fit the data (Supplementary Materials Figures S4 and S5). […] The maximum plasma concentration (Cmax) and the plasma concentration at steady state (Css) were used as toxicity thresholds. The Cmax was utilized for drugs in which short, high-dosage time courses are required, while the Css was used for maintenance therapy regimes such as anti-hormonal treatment. […] The IC50 values were calculated based on the Chou–Talalay method using Compusyn software [55]. For anti-hormonal treatment, mostly provided as maintenance therapy, we used IC10 values in addition to the IC50.
as §3

[4] = test system: GCPA113 T1.III patient-derived AGCT cell line; test: Cell viability drug screen (Cell Titer Glo 2.0, 72 h), mono- and combination therapy, GCPA113T1.III; conditions: GCPA113T1III
AGCT cell lines = test: Cell viability drug screen (72 h), summary over AGCT cell lines (12 patient-derived, with or without KGN); assay type: cell-based, human; conditions: median over AGCT cell lines; read-out: median IC50 in monotherapy
Method: (§6) Cell lines were seeded at a density of 500 cells/well in 40 uL in 384-well plates (Corning, NY, USA) with the Multidrop™ cell dispenser (Thermo Fischer Scientific, Waltham, MA, USA) and sealed with Breathe-Easy® membrane (Sigma-Aldrich, St. Louis, MO, USA) to prevent evaporation. The SVOG-3e line was seeded at 1000 cells/well due to contact-dependent growth requirements. For each cell line, three biological repeats and two technical repeats each were performed in order to ensure the validity of the drug screens. […] Subsequently, 11 drugs and 12 drug combinations were dispensed and all wells (excluding blanks and non-DMSO control wells) were normalized to 1% DMSO using the HP Tecan D300e Digital Dispenser (Hewlett-Packard, Palo Alto, CA, USA). All drugs were applied in linear concentration ranges (Table 2), including 16 data points to enable combination drug testing at constant ratios (Table 3). Next, the plates were covered with the Breathe-Easy membrane and incubated. After 72 h, the Multidrop dispensed 15 uL per well of Cell Titer Glo 2.0 (Thermo Fischer Scientific, Waltham, MA, USA) and plates were incubated in the dark for 10 min. After incubation, luminescence excitation was assessed in the Spectramax reader (Molecular Devices, San Jose, CA, USA) (top read, luminescence excitation at 500 nm) and raw data were processed in Microsoft Excel to subtract background luminescence. The Z-factor, a mathematical method used to quantify the quality of a drug screen based on the calculation of the separation band between the values of the positive and negative controls, was utilized to assess the quality of drug screens [54]. Screens with a Z-factor value of >0.5 were used for further analysis.
as §5, §3

[5] = test system: GCPA028 T1.II patient-derived AGCT cell line; test: Cell viability drug screen (Cell Titer Glo 2.0, 72 h), mono- and combination therapy, GCPA028
Method: as §4, §5, §3

[6] = cited from earlier work
[7] = test system: GCPA007 T2.IV patient-derived AGCT cell line; test: Cell viability drug screen (Cell Titer Glo 2.0, 72 h), mono- and combination therapy, GCPA007T2.IV; conditions: GCPA007T2IV
Method: as §1, §2, §3

[8] = test system: GCPA108 T3.IV patient-derived AGCT cell line; test: Cell viability drug screen (Cell Titer Glo 2.0, 72 h), mono- and combination therapy, GCPA108T3.IV; conditions: GCPA108T3IV
Method: as §6, §5, §3

[9] = test system: GCPA096 T1.II patient-derived AGCT cell line; test: Cell viability drug screen (Cell Titer Glo 2.0, 72 h), mono- and combination therapy, GCPA096T1.II; conditions: GCPA096T1II
Method: as §4, §5, §3

[10] = test system: KGN cells (AGCT cell line); test: Cell viability drug screen (Cell Titer Glo 2.0, 72 h), mono- and combination therapy, KGN
Method: KGN was cultured in conditions identical to AGCT-patient-derived cell lines.
as §4, §2

[11] = test system: GCPA096 T1.XVI patient-derived AGCT cell line; test: Cell viability drug screen (Cell Titer Glo 2.0, 72 h), mono- and combination therapy, GCPA096T1.XVI; conditions: GCPA096T1XVI
Method: as §4, §5, §3

[12] = test system: GCPA096 T1.XV patient-derived AGCT cell line; test: Cell viability drug screen (Cell Titer Glo 2.0, 72 h), mono- and combination therapy, GCPA096T1.XV; conditions: GCPA096T1XV
Method: as §6, §5, §3

[13] = test system: GCPA113 T1.I patient-derived AGCT cell line; test: Cell viability drug screen (Cell Titer Glo 2.0, 72 h), mono- and combination therapy, GCPA113T1.I; conditions: GCPA113T1I
Method: as §1, §2, §3

[14] = test system: GCPA113 T1.II patient-derived AGCT cell line; test: Cell viability drug screen (Cell Titer Glo 2.0, 72 h), mono- and combination therapy, GCPA113T1.II; conditions: GCPA113T1II
Method: as §1, §2, §3

[15] = in combination Carbo+Pacli+6thio2dG
[16] = in combination Carbo+Pacli+Alpelisib
[17] = read-out: IC50 in monotherapy, monotherapy
[18] = drug within Carbo+Pacli+6thio2dG
[19] = drug within Carbo+Pacli+Alpelisib
[20] = read-out: IC50 in monotherapy, single drug, 72 h, unit not given (compared with Cmax/Css in uM)

N.N.O=C([O-])C1(C(=O)[O-])CCC1.[Pt+2] [Carboplatin]
DRI (Fa=0,5) ([1]; in Carbo+Pacli (10:1)): 4.425 | DRI (Fa=0,5) ([1]; in Carbo+Pacli+6thio2dG (10:1:1)): 2.54 | DRI (Fa=0,5) ([1]; in Carbo+Pacli+Alpelisib (10:1:2)): 230.67 | IC50 ([1]; read-out: IC50 in monotherapy, cell viability 72 h after drug application): > 500 µM | DRI (Fa=0,5) ([2]; in combination Carbo+Pacli): 1.8 | DRI (Fa=0,5) [2, 15]: 2.92 | DRI (Fa=0,5) [2, 16]: 7.45 | IC50 [2, 17]: 257 µM | DRI (Fa=0,5) ([3]; drug within Carbo+Pacli): 1.19 | DRI (Fa=0,5) [3, 18]: 4.7 | DRI (Fa=0,5) [3, 19]: 17.09 | IC50 [3, 20]: > 500 µM | DRI (Fa=0,5) ([4]; drug within Carbo+Pacli): 1.76 | DRI (Fa=0,5) [4, 18]: 1.97 | DRI (Fa=0,5) [4, 19]: 35.75 | IC50 [4, 17]: 358 µM | IC50 (AGCT cell lines): 343 µM | DRI (Fa=0,5) ([5]; GCPA028, in combination Carbo+Pacli): 0.51 | DRI (Fa=0,5) ([5]; GCPA028, in combination Carbo+Pacli+6thio2dG): 0.29 | DRI (Fa=0,5) ([5]; GCPA028, in combination Carbo+Pacli+Alpelisib): 41.26 | IC50 ([5]; read-out: IC50 in monotherapy, GCPA028, monotherapy): > 500 µM | Cmax/Css plasma (Log 10) ([6]; human maximum or steady state plasma concentration, log10 of the uM value): 2.13 Log 10 | Cmax/Css plasma (Log 10) ([6]; human plasma Cmax/Css, log10 of uM value, from phase I/II clinical trials): 2.13 Log 10 | Cmax/Css plasma (Log 10) ([6]; human plasma maximum/steady state concentration, ref phase I/II clinical trials): 2.13 Log 10 | Cmax/Css plasma (Log 10) ([6]; human plasma, maximum or steady state concentration, log10 of uM value): 2.13 | Cmax/Css plasma (Log 10) ([6]; human plasma, log10 of uM, phase I/II trials): 2.13 | Cmax ([6]; read-out: Cmax (maximum drug concentration achieved in plasma), human plasma, phase I/II studies): 135 µM | Cmax ([6]; read-out: Cmax/Css plasma, human maximum or steady state plasma concentration): 135 µM | Cmax ([6]; read-out: Cmax/Css plasma, human plasma Cmax/Css, from phase I/II clinical trials): 135 µM | Cmax ([6]; read-out: Cmax/Css plasma, human plasma maximum/steady state concentration, ref phase I/II clinical trials): 135 µM | Cmax ([6]; read-out: Cmax/Css plasma, human plasma, maximum or steady state concentration): 135 µM | Cmax ([6]; read-out: Cmax/Css plasma, human plasma, phase I/II trials): 135 µM | DRI (Fa=0,5) ([7]; in combination Carbo+Pacli): 2.73 | DRI (Fa=0,5) [7, 15]: 1.36 | DRI (Fa=0,5) [7, 16]: 37.92 | IC50 [7, 17]: > 500 µM | DRI (Fa=0,5) ([8]; in Carbo+Pacli): 1 | DRI (Fa=0,5) ([8]; in Carbo+Pacli+6thio2dG): 0.7515 | DRI (Fa=0,5) ([8]; in Carbo+Pacli+Alpelisib): 9.921 | DRI (Fa=0,5) ([9]; drug within Carbo+Pacli): 1.11 | DRI (Fa=0,5) [9, 18]: 2.3 | DRI (Fa=0,5) [9, 19]: 5.75 | IC50 [9, 20]: 168 µM | DRI (Fa=0,5) ([10]; drug within Carbo+Pacli): 5.1507 | DRI (Fa=0,5) [10, 18]: 2.192 | DRI (Fa=0,5) [10, 19]: 26.6538 | IC50 [10, 17]: 297 µM | DRI (Fa=0,5) ([11]; in Carbo+Pacli): 0.64 | DRI (Fa=0,5) ([11]; in Carbo+Pacli+6thio2dG): 0.59 | DRI (Fa=0,5) ([11]; in Carbo+Pacli+Alpelisib): 2.39 | IC50 [11, 17]: 144 µM | DRI (Fa=0,5) ([12]; drug within Carbo+Pacli): 0.85 | DRI (Fa=0,5) [12, 18]: 2.35 | DRI (Fa=0,5) [12, 19]: 7.71 | IC50 [12, 20]: 265 µM | DRI (Fa=0,5) ([13]; in Carbo+Pacli): 1.12 | DRI (Fa=0,5) ([13]; in Carbo+Pacli+6thio2dG): 2.55 | DRI (Fa=0,5) ([13]; in Carbo+Pacli+Alpelisib): 32.56 | IC50 [13, 17]: > 500 µM | DRI (Fa=0,5) ([14]; drug within Carbo+Pacli): 1.06 | DRI (Fa=0,5) [14, 18]: 1.33 | DRI (Fa=0,5) [14, 19]: 4.67 | IC50 [14, 17]: 276 µM
